In ChEMBL document CHEMBL1143692, “Modulating paclitaxel bioavailability for targeting prostate cancer” (Bioorg Med Chem, 2007):
Starred links: 1 amine or outer side, 2 acyl side, 3 side chain; linkers in the order of their positions; H or OH if unused. Residues, ends and D or L forms follow the SMILES beside them. *: point of attachment. Morpholide = C1CN(*)CCO1; CO = O=C([*:1])[*:2]

Tests used:
[1] = tested on: prostate-specific antigen; test: Half life in Tris buffer at pH 7.8, 37 degC for 48 hrs in presence of prostate-specific antigen at 100 uM; assay type: ADME, Prostate gland; details: Tris buffer with prostate-specific antigen
Plasma = test: Degradation in plasma at 100 uM after 48 hrs; assay type: functional, Homo sapiens
Serum = test: Degradation in serum at 100 uM after 48 hrs; assay type: functional, Homo sapiens
[2] = Growth inhibition of human CWR22Rv1 cells; assay type: functional, cell-based, CWR22R; details: 22Rv1
DU-145 [3] = test: Growth inhibition of human DU145 cells; assay type: functional, cell-based
TSU [4] = test: Growth inhibition of human TSU cells; assay type: functional, cell-based
[5] = Cytotoxicity against human CWR22Rv1 cells after 96 hrs; assay type: functional, cell-based, CWR22R; details: 22Rv1, 96 h
TSU [6] = test: Growth inhibition of human TSU cells at 1 nM; assay type: functional
[7] = Half life in serum at 100 uM after 48 hrs at 37 degC; assay type: ADME, cell-free; details: human
Homo sapiens [8] = species on record: Homo sapiens; test: Activity at prostate-specific antigen hydrolysis at pH 7.8; assay type: tissue-based; details: Prostate gland
Homo sapiens [9] = species on record: Homo sapiens; test: Ratio of […] for prostate-specific antigen; details: Prostate gland
CWR22R = test: Toxicity against human CWR22Rv1 cells upto 100 uM; assay type: functional, cell-based
DU-145 [10] = test: Toxicity against human DU145 cells upto 100 uM; assay type: functional, cell-based
TSU [11] = test: Toxicity against human TSU cells upto 100 uM; assay type: functional, cell-based

| SMILES | half-life at 100 µM [1] | Percent degraded (Plasma) | Activity (Serum) | inhibition at 0.001 µM (TSU [6]) | half-life at 100 µM [7] | other results |
| --- | --- | --- | --- | --- | --- | --- |
| CC(=O)O[C@H]1C(=O)[C@]2(C)[C@@H](O)C[C@@H]3OC[C@]3(OC(C)=O)[C@@H]2[C@H](OC(=O)c2ccccc2)[C@]2(O)C[C@@H](OC(=O)[C@H](OC(=O)N(C)CCNC(=O)[C@H](CCC(N)=O)NC(=O)[C@H](Cc3ccc(O)cc3)NC(=O)[C@H](CCCCN)NC(=O)[C@H](CO)NC(=O)[C@H](CO)NC(=O)N3CCOCC3)[C@@H](NC(=O)c3ccccc3)c3ccccc3)C(C)=C1C2(C)C | 6 h | <3% | <2% | – | – | IC50 [2]: < 1 nM; IC50 (DU-145 [3]): < 1 nM; IC50 (TSU [4]): < 1 nM; IC50 [5]: 1000 nM |
| CC(=O)O[C@H]1C(=O)[C@@]2(C)[C@H]([C@H](OC(=O)c3ccccc3)[C@]3(O)C[C@H](OC(=O)[C@H](O)[C@@H](NC(=O)c4ccccc4)c4ccccc4)C(C)=C1C3(C)C)[C@]1(OC(C)=O)CO[C@@H]1C[C@@H]2O [PACLITAXEL] | – | – | – | 90% | – | – |
| CC(=O)O[C@H]1C(=O)[C@]2(C)[C@@H](OC(=O)OCc3ccc(NC(=O)[C@H](CCC(N)=O)NC(=O)[C@H](CC(C)C)NC(=O)[C@H](CCCCN)NC(=O)[C@H](CO)NC(=O)[C@H](CO)NC(=O)[C@H](Cc4c[nH]cn4)NC(=O)N4CCOCC4)cc3)C[C@@H]3OC[C@]3(OC(C)=O)[C@@H]2[C@H](OC(=O)c2ccccc2)[C@]2(O)C[C@@H](OC(=O)[C@H](O)[C@@H](NC(=O)c3ccccc3)c3ccccc3)C(C)=C1C2(C)C | 14 h | 7% | 92% | 30% | 1.5 h | Km (Homo sapiens [8]): 216 µM; kcat (Homo sapiens [8]): 0.00585 s⁻¹; kcat/Km (Homo sapiens [9]): 27 M⁻¹ s⁻¹ |
| CC(=O)O[C@H]1C(=O)[C@]2(C)[C@@H](O)C[C@@H]3OC[C@]3(OC(C)=O)[C@@H]2[C@H](OC(=O)c2ccccc2)[C@]2(O)C[C@@H](OC(=O)[C@H](OC(=O)N(C)CCNC(=O)[C@H](CCC(N)=O)NC(=O)[C@H](CC(C)C)NC(=O)[C@H](CCCCN)NC(=O)[C@H](CO)NC(=O)[C@H](CO)NC(=O)[C@H](Cc3c[nH]cn3)NC(=O)N3CCOCC3)[C@@H](NC(=O)c3ccccc3)c3ccccc3)C(C)=C1C2(C)C | 10 h | <3% | <2% | – | – | – |
| NCCCC[C@H](NC(=O)[C@H](CO)NC(=O)[C@H](CO)NC(=O)N1CCOCC1)C(=O)N[C@@H](Cc1ccc(O)cc1)C(=O)N[C@@H](CCC(N)=O)C(=O)O ({Morpholide-CO}-SSKYQ-OH) | – | – | – | – | – | Activity (CWR22R): Not toxic; Activity (DU-145 [10]): Not toxic; Activity (TSU [11]): Not toxic |
| CC(=O)O[C@H]1C(=O)[C@]2(C)[C@@H](O)C[C@@H]3OC[C@]3(OC(C)=O)[C@@H]2[C@H](OC(=O)c2ccccc2)[C@]2(O)C[C@@H](OC(=O)[C@H](OC(=O)OCc3ccc(NC(=O)[C@H](CCC(N)=O)NC(=O)[C@H](CC(C)C)NC(=O)[C@H](CCCCN)NC(=O)[C@H](CO)NC(=O)[C@H](CO)NC(=O)[C@H](Cc4c[nH]cn4)NC(=O)N4CCOCC4)cc3)[C@@H](NC(=O)c3ccccc3)c3ccccc3)C(C)=C1C2(C)C | 12 h | 10% | 87% | 30% | 1 h | – |
